The values that follow come from US20110268818A1, “NGAL-BINDING SIDEROPHORES AND USE THEREOF TO TREAT IRON DEFICIENCY AND IRON OVERLOAD” (priority 2008, published 2011).

Series [1] deals with T1, NGAL (Homo sapiens, UniProt P80188).
T1 construct: made in house; host or cells: E. coli BL-21
Briefly: Release of ligands and iron from NGAL complexes by acidification. It counts as physicochemical. Particulars: fluorescence and 55Fe release. An excerpt:
FIGS. 6A-6C. Release of ligands from NGAL by acidification. […] Fluorescence was quenched by ligand binding. Upon acidification, the ligands were released and fluorescence returned to baseline. Subsequent basification, where relevant, caused rebinding. Note that NGAL:pyrogallol and 2,3-dihydroxybenzoic acid complexes required much lower pH for dissociation. (B) Release of ^55Fe from different NGAL:catecholate complexes by low pH washes on a 10 KDa microcon. For this comparison, the retention of iron at pH7.0 was defined as 100%. […] Data were presented as mean±Std.
To transport iron from plasma to cells there has to be a mechanism for releasing iron from the complex. Intracellular delivery of iron by transferring is known to require passage through acidified endosomes where iron is released. […] While the complex was stable at neutral pH, acidification below pH 7.0 progressively reversed ligand-dependent fluorescence quenching of NGAL and released iron (FIG. 6A, B).
Fluorescence quenching binding assay. […] The pH was adjusted until the fluorescence signal stopped changing, while fluorescence values were corrected for dilution. Data were analyzed by a nonlinear regression analysis using a one-site binding model (Kuzmic, P. (1996). Program DYNAFIT for the analysis of enzyme kinetic data: application to HIV proteinase. Anal. Biochem. 237, 260-273). […]

Series [2] is described as follows: Hydroxyl radicals detected by conversion of HPF to fluorescein. The format is biochemical. Particulars: catechol, ferric iron and H2O2. An excerpt: NGAL Blocks Iron Induced Hydroxyl Radicals. […] Hydroxyl radicals were detected by the conversion of HPF to fluorescein (Setsukinai, K., Urano, Y., Kakinuma, K., Majima, H. J., Nagano, T. (2003). Development of Novel Fluorescence Probes That Can Reliably Detect Reactive Oxygen Species and Distinguish Specific Species. J Biol Chem. 278, 170-3175) using […].

Series [3] can be described thus: Catechol and iron traffic to the kidney in vivo. The note with it: mouse.
The target in series [4] is T1, NGAL. Put plainly: NGAL:siderophore:iron binding assay (retention on 10 kDa filter). Particulars: for NGAL-siderophore-Fe binding activity (in words): iron retention by NGAL on filter. On the procedure:
NGAL:Siderophore:Iron Binding Assays. […] After 60 minutes, the mixture was washed 3 times (YM-10) or alternatively gel filtered (PD-10, GE Biosciences). Ent loaded NGAL served as a positive control. Ferric citrate (1 mM) or Ent:iron (500 μM) served as competitors of ^55Fe binding.
After 60 minutes at room temperature, the mixture was then washed 3 times on a 10-kDa membrane (Amicon YM-10; Millipore Corp.). Ngal loaded with iron-free enterochelin (rather than apo-Ngal) served as a positive control for iron capture. Ferric citrate (1 mM) or iron-loaded enterochelin (siderophore:Fe, […]) was used as a competitor of 55Fe binding.

Series [5] has as its target T1, NGAL. Briefly: Fluorescence quenching binding assay. The note with it: with iron vs without iron. On the procedure:
Fluorescence quenching binding assay. […] The pH was adjusted until the fluorescence signal stopped changing, while fluorescence values were corrected for dilution. […] Control experiments were performed to ensure the stability of the protein at experimental conditions, including the dilution and the addition of DMSO and ubiquitin.

Series [6] can be described thus: Free catechol stability in solution monitored by NMR. The format is physicochemical. Particulars: monitored for 20 hrs by NMR, D2O. An excerpt: J. Agric Food Chem. 54, 5755-5762; Carmella, S. G., La, V. E. J., Hecht, S. S. (1982). […] Food Chem Toxicol. 20, 587-590) and aromatic amino acids (˜50%; Martin et al., 1982; Carmella et al., 1982; Bakke, O. M. (1969). Urinary simple phenols in rats fed purified and nonpurified diets. J. Nutr. 98, 209-216). […] Using urinary biomarkers to elucidate dose-related patterns of human benzene metabolism. Carcinogenesis 27, 772-781), whereupon they are sulfonated (Rennick, B., Quebbemann, A. (1970). Site of excretion of catechol and catecholamines: renal metabolism of catechol. Am. J. Physiol. 218, 1307-1312).

A short description of series [7]: Reduction of Fe3+ to Fe2+ detected with phenanthroline. The format is biochemical. The note with it: catechols 45 μM, ferric iron 15 μM, NGAL 15 μM.

`Oc1ccccc1O` [Catechol]: on NGAL [1], the “pH at which the NGAL:ligand:iron complex dissociates” value is listed as 5.5 pH. The “conversion of HPF to fluorescein (hydroxyl radical formation)” value in series [2] is “Conversion of HPF to fluorescein occurs”. In series [3], the “clearance of free 14C-catechol by organs” value is listed as “rapidly cleared”. Also, the “NGAL: Chelator: Fe % Retention” value on NGAL [4] (apoNGAL 10 μM, 55Fe, compound 10 μM, pH 7.4, washed on 10 kDa filter) is 56%. Besides, the “NGAL-siderophore-Fe binding activity (in words)” value is given as “most active compound” at NGAL [4] and “highest activities” at NGAL [4] (listed as catechol). The “increase in binding affinity for NGAL in the presence of iron” value on NGAL [5] is given as 10^5. The “stability of free catechol in solution” value in series [6] is listed as “stable in solution”.

B1: NGAL: Neutrophil Gelatinase Associated Lipocalin, recombinant protein (protein, UniProt P80188 21-198, looked up)
Neutrophil …: QDSTSDLIPAPPLSKVPLQQNFQDNQFQGKWYVVGLAGNAILREDKDPQKMYATIYELKEDKSYNVTSVLFRKKKCDYWIRTFVPGCQPGEFTLGNIKSYPGLTSYLVRVVSTNYNQHAMVFFKKVSQNREYFKITLYGRTKELTSELKENFIRFSKSLGLPENHIVFPVPIDQCIDG
On to B1, for which the “conversion of HPF to fluorescein (hydroxyl radical formation)” value in series [2] is given as “blocked the reaction”. For the same molecule, the “reduction of ferric iron to ferrous iron (phenanthroline)” value in series [7] is recorded as “blocked the reaction”.
